Measured values: ChEMBL document CHEMBL2203118, “Ethyl 2,4,6-trihydroxybenzoate is an agonistic ligand for liver X receptor that induces cholesterol efflux from macrophages without affecting lipid accumulation in HepG2 cells” (Bioorg Med Chem Lett, 2012)
Activity calls are given as the source filed them. The calls are words filed in the database; no cut-off is given here.

Biological target: T1, Peroxisome proliferator-activated receptor alpha (Homo sapiens) (UniProt Q07869)
T1 sequence (whole entry): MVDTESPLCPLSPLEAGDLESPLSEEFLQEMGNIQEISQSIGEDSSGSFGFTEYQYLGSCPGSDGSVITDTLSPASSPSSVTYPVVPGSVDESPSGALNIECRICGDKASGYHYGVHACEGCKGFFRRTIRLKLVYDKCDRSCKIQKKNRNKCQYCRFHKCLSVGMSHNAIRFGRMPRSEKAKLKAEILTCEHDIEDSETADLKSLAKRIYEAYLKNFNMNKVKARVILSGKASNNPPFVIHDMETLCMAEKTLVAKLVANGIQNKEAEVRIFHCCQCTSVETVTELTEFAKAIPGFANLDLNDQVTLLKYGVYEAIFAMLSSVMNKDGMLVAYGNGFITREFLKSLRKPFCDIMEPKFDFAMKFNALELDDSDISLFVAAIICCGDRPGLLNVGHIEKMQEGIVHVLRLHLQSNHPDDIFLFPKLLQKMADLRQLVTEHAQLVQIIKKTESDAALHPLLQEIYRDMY
Test: Transactivation of PPAR-alpha transfected in HEK293 cells at 10 uM after 24 hrs by luciferase reporter gene assay
Assay type: cell-based

`CC(C)(Oc1ccc(C(=O)c2ccc(Cl)cc2)cc1)C(=O)O` was tested. Which Activity did it give?
The Activity was “Active”.
